Counter-ions that a name gives are not always drawn. Like-named read-outs stand apart in the source and are kept apart here.
Key:
[1] = Stability of cinchonine dihydrochloride in aqueous solution (NMR spectra day 0 vs day 30); type: physicochemical; conditions: aqueous solution kept at ambient temperature and in the light for 30 days
Experimental: The ^1H and ^13C spectra were built up using samples of 100 mg and 20 mg respectively in 0.5 ml of deuterated methanol.
The NMR spectra were obtained using a Bruker DRX 500 spectrometer fitted with a so-called “reversible” sensor.
The aqueous solution was kept at ambient temperature and in the light for 30 days. After 30 days, the NMR spectra were recorded in the same way as above.

[2] = In vivo bioavailability / pharmacokinetic study in Beagle dogs; parameters: C20 min: unit not given here; conditions: for C20 min / T1/2 a / half-life: dose 50 mg/kg; for C20 min: blood concentration 20 minutes after administration; for T1/2 a / half-life: absorption; for half-life: Beagle, dog, blood, read-out: T1/2 a
Experimental: These tests were performed in four “Beagle” dogs, two of which were male and two female.
Each dog received, on day 1, a dose of 50 mg per kg of cinchonine dihydrochloride and, on day 8, an equivalent dose of cinchonine monohydrochloride. Blood samples were taken at regular intervals after each administration.

[3] = cited from earlier work
[4] = Beagle dog F2 (female), dihydrochloride
[5] = Beagle dog M1 (male), dihydrochloride
[6] = Beagle dog F1 (female), monohydrochloride
[7] = Beagle dog F2 (female), monohydrochloride
[8] = Beagle dog M1 (male), monohydrochloride
[9] = Beagle dog M2 (male), monohydrochloride

C=C[C@H]1C[N@@]2CC[C@H]1C[C@@H]2[C@@H](O)c1ccnc2ccccc12 [CDH, cinchonine dihydrochloride]
Stability (NMR spectra on day 0 and day 30) ([1]; listed as Cinchonine dihydrochloride): remarkable stability
Stability (NMR spectra on day 0 and day 30) ([1]; listed as cinchonine dihydrochloride): unchanged
C20 min ([2]; Beagle dog F1 (female), dihydrochloride): 2.05
T1/2 a [2, 4]: 20.4 s
C20 min [2, 4]: 3.68
T1/2 a [2, 5]: 15.6 s
C20 min [2, 5]: 0.23
C20 min ([2]; Beagle dog M2 (male), dihydrochloride): 2.1
absorption time, compared with cinchonine monohydrochloride ([2]; Beagle dogs, 50 mg/kg): greater than that of cinchonine monohydrochloride
blood concentration 20 minutes after administration, compared with cinchonine monohydrochloride ([2]; Beagle dogs, 50 mg/kg): greater than that of cinchonine monohydrochloride
half-life ([2]; female, 50 mg/kg, Beagle dog F1 (female)): 6 s
half-life ([2]; male, 50 mg/kg, Beagle dog M2 (male)): 23.4 s

C=C[C@H]1C[N@@]2CC[C@H]1C[C@@H]2[C@@H](O)c1ccnc2ccccc12 [CMH, cinchonine monohydrochloride, reference compound]
T1/2 a [2, 6]: 3 s
C20 min [2, 6]: 1.04
T1/2 a [2, 7]: 6.6 s
C20 min [2, 7]: 1.66
T1/2 a [2, 8]: 3.6 s
C20 min [2, 8]: 0
T1/2 a [2, 9]: 14.4 s
C20 min [2, 9]: 0.25

C=C[C@H]1C[N@@]2CC[C@H]1C[C@@H]2[C@@H](O)c1ccnc2ccccc12 [cinchonine]
solubility in water [3]: very sparingly soluble in water
